Laboratory results published in patent US20100297256A1, “METHODS AND COMPOSITIONS FOR INHIBITING INTEGRINS USING TELLURIUM-CONTAINING COMPOUNDS” (priority 2007, published 2010).

Experiments:
U937 cells [1] = test: AML chemotherapy resistance assay (XTT cell viability), U937; format: cell-based, human; settings: for resistance of cells to the agent on fibronectin-coated plates in comparison with VCAM-1- and BSA-coated plates: U937
Procedure: (§1) Cell viability was determined using a cell proliferation kit (Roche), which colors viable cells using the tetrazolium salt XTT.
(§2) 2×10^4 per 200 μl cells were seeded in 96-microwell flat bottom plates. After 24 hours, the tested compound(s) (e.g., AS101, ARA-C, DTNB, anti-VLA-4 antibody) was added, and the cells were incubated overnight with the tested compound(s). The XTT solution was then added and the cells were incubated for 4 hours at 37° C. Cell viability was than evaluated by measuring absorbance at 450 nm using a Microplate Spectrophotometer (Spectra MAX Plus, Molecular Devices).
The role of VLA protein in fibronectin-induced resistance to chemotherapy was investigated by performing a chemotherapy resistance assay, as described hereinabove, with anti-VLA-4 and anti-VLA-5 antibodies. U937 cells were grown in fibronectin- and BSA-coated plates. Antibodies were added at a concentration of 1 μg/ml.

U937 cells [2] = test: Fluorescence-based flow cytometry analysis of cell death; design: species or system human; settings: agent alone
Source text: Fluorescence-based flow cytometry was used to measure the effect of tellurium-containing compounds on chemotherapy-induced cell death. Accumulation of cells in the sub-G1 fraction, increased proportion of annexin V-positive and propidium iodide-positive cells and increased caspase activity were each used as indicators of increased cell death, using standard procedures.

Bcl2 = test: Western blot analysis of Bcl2; format: cell-based, human; settings: ARA-C alone
Source text: The expression of the survival factor Bcl2 was examined via Western blot analysis in U937 cells treated with the chemotherapeutic agent ARA-C.

[3] = system: leukemic cells from AML patients; test: Sensitization of leukemic cells from AML patients to chemotherapy; format: cell-based, human
Procedure: as §2
Bone marrow samples from patients diagnosed, with AML, but not yet treated, were obtained and grown in vitro. The leukemic cells obtained therefrom were tested for levels of VLA-4 and VLA-5 via fluorescence based cytometry, using FITC (fluorescein isothiocyanate)-conjugated anti-VLA-4 and anti-VLA-5 antibodies, using standard procedures. The cells were grown on both fibronectin and BSA, and the effect of AS101 on chemotherapy resistance was measured.

HL-60 cells = test: AML chemotherapy resistance assay (XTT cell viability), HL-60; format: cell-based, human; settings: HL-60
Procedure: as §1, §2

leukemic cells = test: Chemotherapy resistance assay with DTNB, leukemic cells; format: cell-based
Procedure: as §2
The role of free thiols in VLA-4/fibronectin-induced resistance to chemotherapy was therefore investigated by performing a chemotherapy resistance assay, as described hereinabove, with the membrane-impermeable thiol blocker DTNB (5 mM).

| Compound | resistance of cells to the agent on fibronectin-coated plates in comparison with VCAM-1- and BSA-coated plates (U937 cells [1]) | percentage of annexin V-positive and propidium iodide-positive cells (U937 cells [2]; U937 on BSA) | percentage of cells in the sub-G1 fraction (U937 cells [2]; U937 on BSA) | percentage of annexin V-positive and propidium iodide-positive cells (U937 cells [2]; U937 on fibronectin) | percentage of cells in the sub-G1 fraction (U937 cells [2]; U937 on fibronectin) | percentage of cells with high caspase-3 activity (U937 cells [2]; U937 on fibronectin) | expression of Bcl2 (Bcl2; U937 on BSA) | expression of Bcl2 (Bcl2; U937 on fibronectin) | viability of cells exposed to ARA-C ([3]; 4 AML patients with low VLA-4 levels, on fibronectin and BSA) | resistance of cells to ARA-C ([3]; 8 AML patients with high VLA-4 levels, on fibronectin) | viability of cells exposed to ARA-C ([3]; Patient A, low VLA-4, on fibronectin and BSA) | resistance of cells to ARA-C ([3]; Patient B, high VLA-4, on fibronectin) | resistance of cells to the agent on fibronectin-coated plates in comparison with VCAM-1- and BSA-coated plates (HL-60 cells) | sensitization to ARA-C-induced cell death (leukemic cells; 5 mM DTNB, fibronectin-coated plates) | sensitization to ARA-C-induced cell death (leukemic cells; DTNB, BSA-coated plates) | effect on viability of cells exposed to ARA-C, alone or in combination (U937 cells [1]; U937 on BSA) | effect on viability of cells exposed to ARA-C, alone or in combination ([3]; low VLA-4 leukemic cells, fibronectin-coated plates) |
| --- | --- | --- | --- | --- | --- | --- | --- | --- | --- | --- | --- | --- | --- | --- | --- | --- | --- |
| Nc1ccn([C@@H]2O[C@H](CO)[C@@H](O)[C@@H]2O)c(=O)n1 [ARA-C, cytosine arabinoside, reference compound] | more resistant | large percentage | large percentage | slight increase | slight increase | little or no effect | reduced expression of Bcl2 considerably | did not decrease expression of Bcl2 | decreased effectively | relatively resistant to ARA-C | decreased effectively | relatively resistant to ARA-C | more resistant |  |  |  |  |
| O=C(O)c1cc(SSc2ccc([N+](=O)[O-])c(C(=O)O)c2)ccc1[N+](=O)[O-] [DTNB, 5,5′-dithiobis-(2-nitrobenzoic acid)] |  |  |  |  |  |  |  |  |  |  |  |  |  | sensitizes leukemic cells grown in fibronectin-coated plates to ARA-C-induced cell death | no effect | no effect either alone or in combination | no effect either alone or in combination |
| COc1cccc2c1C(=O)c1c(O)c3c(c(O)c1C2=O)C[C@@](O)(C(C)=O)C[C@@H]3O[C@H]1C[C@H](N)[C@H](O)[C@H](C)O1 [daunorubicin, reference compound] | more resistant |  |  |  |  |  |  |  |  |  |  |  | more resistant |  |  |  |  |
